# Assay results from patent US6355673B1, “Substituted diaminocarboxylic acids” (Aventis Pharma Deutschland GmbH, priority 1997, dated 2002).
# Key:
# [1] = biological target: T1, stromelysin (MMP-3) (Homo sapiens, UniProt P08254); assay: Enzyme inhibition of the catalytic domain of human stromelysin (fluorogenic substrate); type: biochemical; details: 15 min preincubation, pH=6.5, fluorescence 328 nm (ex)/393 nm (em)
# T1 construct: enzymatic activity of the catalytic domains of human stromelysin and of neutrophil collagenase; made in house
# T1 sequence (P08254 100-272 limits assumed): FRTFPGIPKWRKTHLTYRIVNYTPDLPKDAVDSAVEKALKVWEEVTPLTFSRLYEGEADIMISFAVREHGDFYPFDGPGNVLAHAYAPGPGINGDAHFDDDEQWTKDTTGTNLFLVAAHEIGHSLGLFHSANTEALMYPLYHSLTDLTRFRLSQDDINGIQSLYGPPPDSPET
# Experimental: (§1) Preparation and determination of the enzymatic activity of the catalytic domains of human stromelysin and of neutrophil collagenase.
# (§2) The enzymes stromelysin (MMP-3) and neutrophil collagenase (MMP-8) were prepared according to Ye et al. (Biochemistry; 31 (1992) pages 11231-11235). To measure the enzyme activity or the enzyme inhibitor action, 70 μl of buffer solution and 10 μl of enzyme solution are incubated for 15 min with 10 μl of a 10% strength (v/v) aqueous dimethyl sulfoxide solution, which optionally contains the enzyme inhibitor. After addition of 10 μl of a 10% strength (v/v) aqueous dimethyl sulfoxide solution which contains 1 mil/L of the substrates, the enzyme reaction is monitored by fluorescence spectroscopy (328 nm (ex)/393 nm(em)). The enzyme activity is shown as the extinction increase/min. The IC50 values listed in Table 2 are determined as those inhibitor concentrations which in each case lead to a 50% inhibition of the enzyme.
# (§3) The buffer solution contains 0.05% Brij (Sigma, Deisenhofen, Germany) and also 0.1 mol/L tris/HCl, 0.1 mol/L NaCl, 0.01 mol/L CaCl2 and 0.1 mol/L piperazine-N,N′-bis(2-ethanesulfonic acid) (pH=6.5). The enzyme solution contains 5 μg/ml of one of the enzyme domains prepared according to Ye et al. The substrate solution contains 1 mil/L of the fluorogenic substrate (7-methoxycoumarin-4-yl)acetyl-Pro-Leu-Gly-Leu-3-(2′,4′-dinitrophenyl)-L-2,3-diaminopropionyl-Ala-Arg-NH2 (Bachem, Heidelberg, Germany).
# [2] = biological target: T2, neutrophil collagenase (MMP-8) (Homo sapiens, UniProt P22894); assay: Enzyme inhibition of the catalytic domain of neutrophil collagenase (fluorogenic substrate); type: biochemical; details: 15 min preincubation, pH=6.5, fluorescence 328 nm (ex)/393 nm (em)
# T2 construct: enzymatic activity of the catalytic domains of human stromelysin and of neutrophil collagenase; made in house
# T2 sequence (P22894 100-262 limits assumed): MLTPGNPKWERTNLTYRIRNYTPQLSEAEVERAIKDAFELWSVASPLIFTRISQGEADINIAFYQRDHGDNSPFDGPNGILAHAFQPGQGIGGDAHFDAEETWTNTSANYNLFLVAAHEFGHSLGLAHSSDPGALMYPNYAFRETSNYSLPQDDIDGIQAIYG
# Experimental: as §1, §2, §3
SMILES,IC50 [1] [µM],IC50 [2] [µM]
"O=C(NCCC[C@H](NS(=O)(=O)c1ccc(-c2ccc(Cl)cc2)cc1)C(=O)O)NS(=O)(=O)c1ccccc1 [Example 5, (4-Chlorobiphenylsulfonyl)-N-delta-(phenylsulfonylamino-carbonyl)-Orn-OH]",0.05,0.004
COc1cccc(OC)c1C(=O)NCCC[C@H](NS(=O)(=O)c1ccc(-c2ccc(Cl)cc2)cc1)C(=O)O [Example 139],0.05,0.02
CN(C)c1ccc(-c2ccc(S(=O)(=O)N[C@@H](CCCNC(=O)OC(C)(C)C)C(=O)O)cc2)cc1 [Example 59],0.005,0.001
O=C(O)c1ccccc1S(=O)(=O)NCCC[C@H](NS(=O)(=O)c1ccc(-c2ccc(Cl)cc2)cc1)C(=O)O [Example 76],0.04,0.04
NCCCC[C@H](NS(=O)(=O)c1ccc(-c2ccc(Cl)cc2)cc1)C(=O)O [Example 12],0.06,0.01
O=C(NCCC[C@@H](NS(=O)(=O)c1ccc(-c2ccc(Cl)cc2)cc1)C(=O)O)C1CC1 [Example 41],0.005,0.002
O=C(NCCC[C@H](NS(=O)(=O)c1ccc(-c2ccc(Cl)cc2)cc1)C(=O)O)c1ccc(F)cc1F [Example 86],0.02,0.004
CC1(C)C(C(=O)NCCC[C@H](NS(=O)(=O)c2ccc(-c3ccc(Cl)cc3)cc2)C(=O)O)C1(C)C [Example 70],0.01,0.003
CC(C)(CC(=O)O)CC(=O)NCCC[C@H](NS(=O)(=O)c1ccc(-c2ccc(Cl)cc2)cc1)C(=O)O [Example 81],0.03,0.003
O=C(NCCC[C@@H](NS(=O)(=O)c1ccc(-c2ccc(Cl)cc2)cc1)C(=O)O)Nc1ccccc1 [Example 42],0.01,0.003
CC(C)(C)CC(=O)NCCC[C@@H](NS(=O)(=O)c1ccc(-c2ccc(Cl)cc2)cc1)C(=O)O [Example 46],0.01,0.003
NC(=O)NCCCC[C@@H](NS(=O)(=O)c1ccc(-c2ccc(Cl)cc2)cc1)C(=O)O [Example 23],0.04,0.005
COc1ccc(S(=O)(=O)NCCC[C@H](NS(=O)(=O)c2ccc(-c3ccc(Cl)cc3)cc2)C(=O)O)cc1OC [Example 60],0.01,0.01
CC(=O)Oc1ccccc1C(=O)NCCC[C@H](NS(=O)(=O)c1ccc(-c2ccc(Cl)cc2)cc1)C(=O)O [Example 73],0.004,0.002
O=C(NCCC[C@H](NS(=O)(=O)c1ccc(-c2ccc(Cl)cc2)cc1)C(=O)O)c1ccccc1C(F)(F)F [Example 129],0.01,0.002
"CC(C)(C)OC(=O)NCCCC[C@@H](NS(=O)(=O)c1ccc(-c2ccc(Cl)cc2)cc1)C(=O)O [Example 2, R-(4-Chlorobiphenylsulfonyl)-Lys(Boc)-OH]",0.02,0.006
O=C(NCCC[C@H](NS(=O)(=O)c1ccc(-c2ccc(Cl)cc2)cc1)C(=O)O)C1CSCN1 (stereo partly drawn) [Example 84],0.02,0.004
Cc1cc(C(=O)NCCC[C@H](NS(=O)(=O)c2ccc(-c3ccc(Cl)cc3)cc2)C(=O)O)ccc1[N+](=O)[O-] [Example 138],0.03,0.01
COc1ccccc1C(=O)NCCC[C@H](NS(=O)(=O)c1ccc(-c2ccc(Cl)cc2)cc1)C(=O)O [Example 151],0.03,0.01
O=C(NCCC[C@H](NS(=O)(=O)c1ccc(-c2ccc(Cl)cc2)cc1)C(=O)O)C1CC1 [Example 62],0.005,0.002
NS(=O)(=O)c1ccc(C(=O)NCCC[C@H](NS(=O)(=O)c2ccc(-c3ccc(Cl)cc3)cc2)C(=O)O)cc1 [Example 142],0.01,0.004
O=C(NCCC[C@H](NS(=O)(=O)c1ccc(-c2ccc(Cl)cc2)cc1)C(=O)O)c1ccc2[nH]cnc2c1 [Example 141],0.01,0.01
O=C(NCCC[C@H](NS(=O)(=O)c1ccc(-c2ccc(Cl)cc2)cc1)C(=O)O)c1cc(F)cc(F)c1 [Example 93],0.02,0.004
O=C(NCCC[C@H](NS(=O)(=O)c1ccc(-c2ccc(Cl)cc2)cc1)C(=O)O)c1ccccn1 [Example 50],0.006,0.002
O=C(CC[C@@H](C(=O)O)c1ccccc1)NCCC[C@H](NS(=O)(=O)c1ccc(-c2ccc(Cl)cc2)cc1)C(=O)O [Example 80],0.01,0.003
O=C(NCCC[C@H](NS(=O)(=O)c1ccc(-c2ccc(Cl)cc2)cc1)C(=O)O)c1cccc(C(F)(F)F)c1 [Example 130],0.02,0.004

SMILES,IC50 [1] [µM],IC50 [2] [µM]
O=C(NCCC[C@H](NS(=O)(=O)c1ccc(-c2ccc(Cl)cc2)cc1)C(=O)O)c1ccc(F)cc1 [Example 71],0.01,0.003
O=C(O)[C@H](CCCN1C(=O)C2CSCN2C1=O)NS(=O)(=O)c1ccc(-c2ccc(Cl)cc2)cc1 (stereo partly drawn) [Example 158],0.007,0.002
Cc1oncc1C(=O)NCCCC[C@@H](NS(=O)(=O)CCc1ccc(-c2ccccc2)cc1)C(=O)O [Example 168],0.04,0.02
CN(CCC[C@H](NS(=O)(=O)c1ccc(-c2ccc(Cl)cc2)cc1)C(=O)O)C(=O)C1CC1 [Example 144],0.01,0.003
O=C(NCCC[C@H](NS(=O)(=O)c1ccc(-c2ccc(Cl)cc2)cc1)C(=O)O)OCc1ccccc1 [Example 15],0.02,0.008
O=C(NCCC[C@H](NS(=O)(=O)c1ccc(-c2ccc(Cl)cc2)cc1)C(=O)O)c1ccc(OC(F)(F)F)cc1 [Example 105],0.04,0.01
NC(=O)NCCCC[C@H](NS(=O)(=O)c1ccc(-c2ccc(Cl)cc2)cc1)C(=O)O [Example 24],0.03,0.005
CC1CC1C(=O)NCCC[C@H](NS(=O)(=O)c1ccc(-c2ccc(Cl)cc2)cc1)C(=O)O (stereo partly drawn) [Example 69],0.004,0.002
O=C(NCCC[C@@H](NS(=O)(=O)c1ccc(-c2ccc(Cl)cc2)cc1)C(=O)O)c1ccc(F)cc1 [Example 47],0.01,0.003
O=C(Cc1ccc(Cl)cc1)NCCC[C@H](NS(=O)(=O)c1ccc(-c2ccc(Cl)cc2)cc1)C(=O)O [Example 89],0.03,0.01
C[C@H](NC(=O)OC(C)(C)C)C(=O)NCCC[C@H](NS(=O)(=O)c1ccc(-c2ccc(Cl)cc2)cc1)C(=O)O [Example 53],0.03,0.006
CC(C)(C)OC(=O)NCCC[C@H](NS(=O)(=O)c1ccc(-c2ccccc2)cc1)C(=O)O [Example 146],0.03,0.003
O=C(NCCC[C@H](NS(=O)(=O)c1ccc(-c2ccc(Cl)cc2)cc1)C(=O)O)c1ccc2ncccc2c1 [Example 126],0.03,0.01
CN(C)c1ccc(C(=O)NCCC[C@H](NS(=O)(=O)c2ccc(-c3ccc(Cl)cc3)cc2)C(=O)O)cc1 [Example 136],0.01,0.007
"O=C(CC(C(=O)O)c1ccccc1)NCCC[C@@H](NS(=O)(=O)c1ccc(-c2ccc(Cl)cc2)cc1)C(=O)O (single isomer, unassigned) [Example 38]",0.005,0.002
"NC(=O)NCCC[C@@H](NS(=O)(=O)c1ccc(-c2ccc(Cl)cc2)cc1)C(=O)O [Example 1, (R)-(4-Chlorobiphenylsulfonyl)citrulline]",0.05,0.007
O=C(NCCC[C@H](NS(=O)(=O)c1ccc(-c2ccc(Cl)cc2)cc1)C(=O)O)c1ccc(Cc2ccccc2)cc1 [Example 103],0.07,0.06
O=C(NCCC[C@H](NS(=O)(=O)c1ccc(-c2ccc(Cl)cc2)cc1)C(=O)O)c1cccs1 [Example 122],0.003,0.002
O=C(NCCC[C@H](NS(=O)(=O)c1ccc(-c2ccc(Cl)cc2)cc1)C(=O)O)c1ccccc1 [Example 117],0.009,0.002
O=C(O)[C@H](CCCN1C(=O)c2ccccc2S1(=O)=O)NS(=O)(=O)c1ccc(-c2ccc(Cl)cc2)cc1 [Example 134],0.005,0.002
NC(=O)C1(C(=O)NCCC[C@H](NS(=O)(=O)c2ccc(-c3ccc(Cl)cc3)cc2)C(=O)O)CC1 [Example 75],0.02,0.004
C[C@@H]1NC(=O)N(CCC[C@H](NS(=O)(=O)c2ccc(-c3ccc(Cl)cc3)cc2)C(=O)O)C1=O [Example 77],0.01,0.002
"O=C(NCCC[C@H](NS(=O)(=O)c1ccc(-c2ccc(Cl)cc2)cc1)C(=O)O)NS(=O)(=O)c1ccccc1 (single isomer, unassigned) [Example 61]",0.006,0.002
Cc1ccc(S(=O)(=O)NC(=N)NCCC[C@@H](NS(=O)(=O)c2ccc(-c3ccc(Cl)cc3)cc2)C(=O)O)cc1 [Example 22],0.08,0.08
O=C(NCCC[C@H](NS(=O)(=O)c1ccc(-c2ccc(Cl)cc2)cc1)C(=O)O)C1CCC1 [Example 66],0.01,0.002
